This is an account of results in patent US20260055117A1, “SUBSTITUTED PYRIDONE GPR84 ANTAGONISTS AND USES THEREOF” (Liminal BioSciences Limited, priority 2022, published 2026).

For the assay, the target named is T1, human GPR84 receptor (Homo sapiens, UniProt Q9NQS5).
T1 construct: host or cells: HEK293, transiently transfected
In words: Gαi biosensor BRET assay (GPR84 antagonism vs agonist ZQ-16). To be noted: HEK293 cells, 200 nmol/L agonist ZQ-16; for inhibition at 10 µM: tested at 10 μM (concentration code D); for IC50: Gαi biosensor BRET assay; for inhibition at 2 µM: tested at 2 μM (concentration code A). It is filed as cell-based. The text has this: Background—The following assays can be used for determination of GPR84 activation in living HEK293 cells. The Gai BRET biosensor (Gagnon et al., 2018; Gales et al., 2006. Nat Struct Mol Biol. 13, 778-86; Saulieres et al., 2012. Nat Chem Biol. 8, 622-30) allows to directly monitor GPR84-mediated activation of Gai. The Gai biosensor consists of a Rluc8-tagged Gai2 subunit, a GFP10-tagged Gy2 subunit, and an untagged GB1. Agonist stimulation and GPR84 activation triggers a physical separation between the RLuc8-Gai donor and the GFP10-Gy2 acceptor, resulting in a decrease in BRET signal whose amplitude is correlated to ligand efficacy (Gales et al., 2006). Moreover, signaling functions of GPCRs are tightly regulated by endocytosis, the targeting of receptors to endosomes and their sorting to lysosomes or recycling to the plasma membrane. The early endosomes (EEs) trafficking assay (Namkung et al., 2016. Nat Commun. 7, 12178) uses Rluc8-tagged GPR84 and Renilla GFP (rGFP) attached to the FYVE domain from human endofin/zinc finger FYVE domain-containing protein 16, which binds phosphatidylinositol 3-phosphate in EEs. Agonist stimulation of GPR84-Rluc8 leads to trafficking of the receptor to EEs, and ensuing increase of the donor concentration relative to the rGFP-FYVE acceptor anchored in the same cellular compartment, and thus results in an increase in BRET signal.
Plasmids—The cDNA clones for human GPR84 receptor, human Gai2, GB1, and Gy2 were obtained from the cDNA Resource Center (www.cdna.org). GFP10 (F64L, S147P, S202F and H231L variant of Aequorea victoria Green Fluorescent Protein) gBlocks gene fragments (Integrated DNA Technologies, IA) and linker were inserted in frame at the N-terminus of human Gy2. Rluc8 (A55T, C124A, S130A, K136R, A143M, M185V, M253L, and S287L variant of the Renilla reniformis luciferase) gBlocks gene fragment was inserted with linkers in frame in between residues 91 and 92 of Gai2 or at the C-terminus of GPR84. The FYVE domain from human endofin (residues Q739 to K806) attached in frame at the C terminus of a humanized Renilla GFP (rGFP), were synthesized as gBlocks gene fragments.
Bioluminescence Resonance Energy Transfer (BRET) Measurement-HEK293 cells were transfected with GPR84-Rluc8 and rGFP-FYVE for the EEs trafficking biosensor or with GPR84, Gai2-Rluc8, GFP10-Gy2, and GB1 for the Ga; biosensor. The following day, transiently transfected cells were seeded in 96-well white clear bottom microplates coated with poly-D-lysine and left in culture for 24 hours. Cells were washed once with Tyrode's buffer (140 mmol/L NaCl, 1 mmol/L CaCl2), 2.7 mmol/L KCl, 0.49 mmol/L MgCl2, 0.37 mmol/L NaH2PO4, 5.6 mmol/L glucose, 12 mmol/L NaHCO3, and 25 mmol/L HEPES, pH 7.5) before performing assays in Tyrode's buffer. Test compounds were incubated with cells for 5 (Gai) or 15 (EEs) minutes at 37° C. before addition of 200 nmol/L of the GPR84 agonist ZQ-16 (2-(Hexylthio)-6-hydroxy-4 (3H)-pyrimidinone) for 5 minutes at room temperature (Gai) or 30 minutes at 37° C. (EEs). The Rluc8 substrate coelenterazine 400A (Prolume, Lakeside, A Z) was added at a final concentration of 5 μmol/L and BRET readings were collected using an Infinite M1000 microplate reader (Tecan, Morrisville, N C). BRET2 readings between Rluc8 and GFP10 or rGFP were collected by sequential integration of the signals detected in the 370 to 450 nm (Rluc8) and 510 to 540 nm (GFP10, rGFP) windows. The BRET signal was calculated as the ratio of light emitted by acceptor (GFP10, rGFP) over the light emitted by donor (Rluc8). The values were corrected to net BRET by subtracting the background BRET signal obtained in cells transfected with Rluc8 constructs alone. Ligand-promoted net BRET values were calculated by subtracting vehicle-induced net BRET from ligand-induced net BRET.
(BRET reads energy transfer from a luciferase to a nearby fluorophore.)

T1 sequence (Q9NQS5 whole entry): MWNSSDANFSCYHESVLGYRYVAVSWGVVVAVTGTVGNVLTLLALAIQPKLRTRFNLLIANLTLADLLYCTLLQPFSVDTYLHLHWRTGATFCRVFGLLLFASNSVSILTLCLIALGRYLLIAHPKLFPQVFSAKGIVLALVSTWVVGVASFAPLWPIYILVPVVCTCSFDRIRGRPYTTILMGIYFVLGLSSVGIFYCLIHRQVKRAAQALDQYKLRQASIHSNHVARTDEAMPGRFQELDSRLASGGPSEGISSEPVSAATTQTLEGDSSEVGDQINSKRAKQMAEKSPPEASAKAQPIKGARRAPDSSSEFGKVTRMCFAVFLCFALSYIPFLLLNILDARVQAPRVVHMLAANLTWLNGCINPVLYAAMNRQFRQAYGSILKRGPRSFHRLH

On to `Cc1cc(OCS(=O)(=O)N(C)C)cc(=O)n1[C@H](C)c1ccc(C#CC2CC2)c(F)c1` [Compound I-37, (R)-1-(1-(1-(4-(cyclopropylethynyl)-3-fluorophenyl)ethyl)-6-methyl-2-oxo-1,2-dihydropyridin-4-yloxy)-N,N-dimethylmethanesulfonamide], for which the inhibition (commonly the percentage by which the read-out fell short of the control) at 10 µM lay within 50 to 75%. As to `Cc1cc(OCC(=O)N(C)C)cc(=O)n1[C@H](C)c1ccc(C#CC2CC2)c(N(C)C)c1` [Compound I-38], the inhibition at 10 µM was above 75%. Turning to `CCc1cc([C@@H](C)n2c(C)cc(OCC(=O)N(C)C)cc2=O)ccc1C#CC1CC1` [Compound I-39], the IC50 (as a rule, the point on the concentration scale where inhibition reaches its midpoint) is at most 300 nM and the inhibition at 2 µM is above 75%. Turning to `Cc1cc(OCC2OCCC(C)(C)O2)cc(=O)n1[C@H](C)c1ccc(C#CC2CC2)cc1` (stereo partly drawn) [Compound I-40], the inhibition at 10 µM lay within 25 to 50%. With `Cc1cc(OCS(=O)(=O)N(C)C)cc(=O)n1[C@H](C)c1ccc(C#CC2CC2)cc1` [Compound I-41], the inhibition at 10 µM lay in the range of 50 to 75%. As to `Cc1cc(OCC(=O)N(C)C2CC2)cc(=O)n1[C@H](C)c1ccc(C#CC2CC2)cc1` [Compound I-42], the half-inhibitory concentration (IC50) was at most 300 nM and the inhibition at 10 µM was above 75%. Turning to `Cc1cc(OCC(=O)NC2CCN(C)CC2)cc(=O)n1[C@H](C)c1ccc(C#CC2CC2)cc1` [Compound I-43], the inhibition at 10 µM lay in the range of 50 to 75%. In turn, `Cc1cc(OCC(=O)N(C)C2CCN(C)CC2)cc(=O)n1[C@H](C)c1ccc(C#CC2CC2)cc1` [Compound I-44] yielded an inhibition at 2 µM above 75%. As to `CNS(=O)(=O)COc1cc(C)n([C@H](C)c2ccc(C#CC3CC3)c(F)c2)c(=O)c1` [Compound I-45], the IC50 was in the range of 300 to 1000 nM and the inhibition at 10 µM lay in the range of 50 to 75%. `Cc1cc(OCS(N)(=O)=O)cc(=O)n1[C@H](C)c1ccc(C#CC2CC2)c(F)c1` [Compound I-46]: the inhibition at 10 µM is above 75%. Same read-out and setting: to `CNS(=O)(=O)COc1cc(C)n([C@H](C)c2ccc(C#CC3CC3)cc2)c(=O)c1` [Compound I-47] belongs 50 to 75%. The same measure, in the same setting: the value for `Cc1cc(OCS(N)(=O)=O)cc(=O)n1[C@H](C)c1ccc(C#CC2CC2)cc1` [Compound I-48] was above 75%; that for `Cc1cc(OCC(=O)NCC(C)C)cc(=O)n1[C@H](C)c1ccc(C#CC2CC2)cc1` [Compound I-49] was above 75%. Take `Cc1cc(OCC(=O)NC2CC2)cc(=O)n1[C@H](C)c1ccc(C#CC2CC2)cc1` [Compound I-50]: the IC50 lay within 300 to 1000 nM and the inhibition at 10 µM is above 75%.

In the case of `Cc1cc(OCC(=O)NC2CC(F)(F)C2)cc(=O)n1[C@H](C)c1ccc(C#CC2CC2)cc1` [Compound I-51], the inhibition at 10 µM was in the range of 50 to 75%. Still for that read-out and setting: to `Cc1cc(OCC(=O)NC2COC2)cc(=O)n1[C@H](C)c1ccc(C#CC2CC2)cc1` [Compound I-52] belongs 50 to 75%; to `Cc1cc(OCc2ncccn2)cc(=O)n1[C@H](C)c1ccc(C#CC2(C(F)(F)F)CC2)c(F)c1` [Compound I-53], 50 to 75%. Still for that read-out and setting: the value for `Cc1cc(OCC(=O)NC(C)C)cc(=O)n1[C@H](C)c1ccc(C#CC2CC2)cc1` [Compound I-54] was above 75%.

Turning to `Cc1cc(OCC(=O)N(C)C(C)C)cc(=O)n1[C@H](C)c1ccc(C#CC2CC2)cc1` [Compound I-55], the IC50 was at most 300 nM and the inhibition at 10 µM was above 75%.

In turn, `Cc1cc(OCC(=O)N(C)C)cc(=O)n1[C@H](C)c1ccc(C#CC2(C(F)(F)F)CC2)cc1` [Compound I-56] returned an IC50 of at most 300 nM and an inhibition at 10 µM above 75%. Compound `Cc1cc(OCC(=O)N(C)C2CCOCC2)cc(=O)n1[C@H](C)c1ccc(C#CC2CC2)cc1` [Compound I-57] came in with an IC50 of at most 300 nM and an inhibition at 2 µM above 75%. For the compound `Cc1cc(OCC(=O)NC2CN(C)C2)cc(=O)n1[C@H](C)c1ccc(C#CC2CC2)cc1` [Compound I-58], the inhibition at 10 µM was 50 to 75%. The same measure, in the same setting: to `Cc1cc(OCC(=O)N(C)C2CN(C)C2)cc(=O)n1[C@H](C)c1ccc(C#CC2CC2)cc1` [Compound I-59] belongs above 75%. Consider `Cc1cc(OCC(=O)N2CCN(C)CC2)cc(=O)n1[C@H](C)c1ccc(C#CC2CC2)cc1` [Compound I-60], for which the concentration for half-maximal inhibition (IC50) is at most 300 nM and the inhibition at 10 µM is above 75%. In the case of `Cc1cc(OCC(=O)N2CCNCC2)cc(=O)n1[C@H](C)c1ccc(C#CC2CC2)cc1` [Compound I-61], the inhibition at 10 µM was above 75%.

`Cc1cc(OCc2ncccn2)cc(=O)n1[C@H](C)c1ccc(C#CC2CC2(F)F)cc1` (stereo partly drawn) [Compound I-62]: the inhibition at 10 µM is 50 to 75%. On to `Cc1cc(OCC(=O)N(C)C)cc(=O)n1[C@H](C)c1ccc(C#CC2CC2(F)F)cc1` (stereo partly drawn) [Compound I-63], for which the IC50 was at most 300 nM and the inhibition at 10 µM was above 75%. In the same order, the values of `Cc1cc(OCC(=O)N(C)C)cc(=O)n1[C@H](C)c1ccc(C#CC2CC2(F)F)c(F)c1` (stereo partly drawn) [Compound I-64, 2-((1-((1R)-1-(4-((2,2-difluorocyclopropyl)ethynyl)-3-fluorophenyl)ethyl)-6-methyl-2-oxo-1,2-dihydropyridin-4-yl)oxy)-N,N-dimethylacetamide] are at most 300 nM and above 75%. On the same counts, the results for `Cc1cc(OCC(=O)N(C)CC(C)C)cc(=O)n1[C@H](C)c1ccc(C#CC2CC2)cc1` [Compound I-65] are at most 300 nM and above 75%. As to `Cc1cc(OCC(=O)NC2CCOCC2)cc(=O)n1[C@H](C)c1ccc(C#CC2CC2)cc1` [Compound I-66], the IC50 lay within 300 to 1000 nM and the inhibition at 10 µM was in the range of 50 to 75%.

In the case of `Cc1cc(OCC(=O)N(C)C2CC(F)(F)C2)cc(=O)n1[C@H](C)c1ccc(C#CC2CC2)cc1` [Compound I-67], the IC50 lay in the range of 300 to 1000 nM and the inhibition at 10 µM was above 75%. Turning to `Cc1nc(OCC(=O)N(C)C2COC2)cc(=O)n1[C@H](C)c1ccc(C#CC2CC2)cc1` [Compound I-68], the IC50 was at most 300 nM and the inhibition at 10 µM was above 75%. `Cc1cc(OCC(=O)NC2CNC2)cc(=O)n1[C@H](C)c1ccc(C#CC2CC2)cc1` [Compound I-69] displayed an inhibition at 10 µM of 25 to 50%. For the compound `Cc1cc(OCc2ncccc2C(F)(F)F)cc(=O)n1[C@H](C)c1ccc(C#CC2CC2)cc1` [Compound I-71], the IC50 lay within 300 to 1000 nM and the inhibition at 10 µM is above 75%. The compound `Cc1cc(OCC(=O)N(C)C)cc(=O)n1[C@H](C)c1ccc(C#CC2CC2)c(O)c1` [Compound I-72] showed an IC50 of 300 to 1000 nM and an inhibition at 10 µM above 75%.

Consider `[2H]C1(C#Cc2ccc([C@@H](C)n3c(C)cc(OCC(=O)N(C)C)cc3=O)cc2)CC1` [Compound I-73], for which the IC50 was at most 300 nM and the inhibition at 2 µM was above 75%.

In the case of `CC#CC#Cc1ccc([C@@H](C)n2c(C)cc(OCc3ncccn3)cc2=O)cc1` [Compound I-74], the inhibition at 10 µM was 25 to 50%. Still for that read-out and setting: the value for `Cc1cc(OCc2ncccn2)cc(=O)n1[C@H](C)c1ccc(C#CC#CC2CC2)cc1` [Compound I-75] was below 25%. Compound `Cc1cc(OCc2ncc(NS(=O)(=O)C(F)(F)F)cn2)cc(=O)n1[C@H](C)c1ccc(C#CC2CC2)cc1` [Compound I-76] showed an IC50 of at most 300 nM and an inhibition at 2 µM above 75%.
